Results published in publication PMC11992087, “A Bacteroides thetaiotaomicron genetic locus encodes activities consistent with mucin O-glycoprotein processing and N-acetylgalactosamine metabolism” (Nature Communications, 2025).

Assays:
BT4244-CBM32 = biological target: T1, BT4244-CBM32 (Bacteroides thetaiotaomicron, UniProt Q89ZX7); assay: ITC; format: binding; settings: 20 mM Tris-HCl pH 7.5, 25 °C; single-site model
T1 construct: gene BT_4244
T1 sequence (Q89ZX7 145-285 limits assumed): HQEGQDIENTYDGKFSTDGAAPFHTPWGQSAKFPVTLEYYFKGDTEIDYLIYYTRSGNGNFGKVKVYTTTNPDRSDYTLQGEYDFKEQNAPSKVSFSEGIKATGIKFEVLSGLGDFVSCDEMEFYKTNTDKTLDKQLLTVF

BT4246-SusD-like [1] = biological target: T2, BT4246-SusD-like (Bacteroides thetaiotaomicron, UniProt Q89ZX5); assay: ITC; format: binding; parameters: gene BT_4246; mature form, signal peptide removed, His-tagged, from E. coli (ITC); settings: 20 mM Tris-HCl pH 7.5, 25 °C; single-site model
T2 sequence (Q89ZX5 25-642): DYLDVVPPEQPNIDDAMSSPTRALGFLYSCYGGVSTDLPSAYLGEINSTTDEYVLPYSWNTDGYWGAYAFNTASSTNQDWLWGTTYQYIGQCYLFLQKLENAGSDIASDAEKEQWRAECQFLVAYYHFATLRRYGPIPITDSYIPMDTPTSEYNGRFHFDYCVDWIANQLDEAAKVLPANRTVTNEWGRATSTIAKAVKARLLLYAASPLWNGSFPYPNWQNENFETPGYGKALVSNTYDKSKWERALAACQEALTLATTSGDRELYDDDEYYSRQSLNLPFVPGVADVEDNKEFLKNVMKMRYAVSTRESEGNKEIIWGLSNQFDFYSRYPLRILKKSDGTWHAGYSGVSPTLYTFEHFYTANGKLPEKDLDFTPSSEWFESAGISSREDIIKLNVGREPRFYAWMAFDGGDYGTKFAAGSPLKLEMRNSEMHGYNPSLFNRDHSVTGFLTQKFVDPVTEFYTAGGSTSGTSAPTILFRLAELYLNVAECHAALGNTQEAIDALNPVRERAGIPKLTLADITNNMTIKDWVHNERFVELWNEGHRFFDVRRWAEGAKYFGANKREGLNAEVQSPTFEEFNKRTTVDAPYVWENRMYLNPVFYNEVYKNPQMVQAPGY

BT4245-SGBP = biological target: T3, BT4245-SGBP (Bacteroides thetaiotaomicron, UniProt Q89ZX6); assay: ITC; format: binding; settings: 20 mM Tris-HCl pH 7.5, 25 °C; single-site model
T3 construct: gene BT_4245; full-length mature protein, signal peptide removed, His-tagged, from E. coli
T3 sequence (Q89ZX6 21-430): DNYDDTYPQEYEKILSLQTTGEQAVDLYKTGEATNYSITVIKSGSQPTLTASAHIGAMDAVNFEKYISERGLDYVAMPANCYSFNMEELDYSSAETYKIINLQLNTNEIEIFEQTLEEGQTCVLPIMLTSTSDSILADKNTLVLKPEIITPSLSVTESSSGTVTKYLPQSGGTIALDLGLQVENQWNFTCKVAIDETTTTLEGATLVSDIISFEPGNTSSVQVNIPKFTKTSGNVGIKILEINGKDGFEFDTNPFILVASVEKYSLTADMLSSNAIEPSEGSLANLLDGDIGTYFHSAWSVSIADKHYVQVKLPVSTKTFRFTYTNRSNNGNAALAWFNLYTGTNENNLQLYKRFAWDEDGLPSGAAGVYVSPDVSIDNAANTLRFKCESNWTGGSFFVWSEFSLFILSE

BT4246-SusD-like [2] = biological target: T2, BT4246-SusD-like; assay: X-ray crystal structure, […] Å; format: binding; parameters: gene BT_4246; residues 25-642, His-tag removed by TEV protease, from E. coli (crystal); settings: crystals soaked in 4% PGMIII O-glycan oligosaccharides; only the terminal Gal of an undefined oligosaccharide is modelled, not free galactose
[3] = substrate: CC(=O)N[C@H]1[C@@H](Oc2ccc([N+](=O)[O-])cc2)O[C@H](CO)[C@H](O)[C@@H]1O; assay: 4-nitrophenol release at A400; format: biochemical, Bacteroides thetaiotaomicron; settings: 20 mM MOPS pH 7.0, 37 °C, 0.4 µM enzyme
Method: 4-nitrophenol release at A400 on BT4243-GH109 | between GalNAc and serine in Tn antigen as well as PNP-α-GalNAc | enzyme (final) was added to substrate (PNP-α-GalNAc or PNP-β-GalNAc, respectively)

**Q.** For `CC(=O)N[C@H]1C(O)O[C@H](CO)[C@H](O)[C@@H]1O[C@@H]1O[C@H](CO)[C@H](O)[C@H](O)[C@H]1O` (some centres unmarked) [core 1 disaccharide], which Ka (BT4244-CBM32) is on record?
**A.** 0.20 (±0.01) × 10^4

**Q.** And the Ka (BT4246-SusD-like [1])?
**A.** 0.45 (±0.03) × 10^4

**Q.** How did the Ka (BT4244-CBM32) turn out when `OC[C@H]1O[C@@H](O[C@H]2[C@H](O)[C@@H](O)C(O)O[C@@H]2CO)[C@H](O)[C@@H](O)[C@H]1O` (some centres unmarked) [lactose] was run?
**A.** 0.23 (±0.00) × 10^4

**Q.** What does the source list for `CC(=O)N[C@H]1C(O)O[C@H](CO)[C@H](O)[C@@H]1O` (some centres unmarked) [GalNAc]?
**A.** Ka (BT4244-CBM32): 0.40 (±0.03) × 10^4; Ka (BT4245-SGBP): 1.20 (±0.2) × 10^4

**Q.** How did the Ka (BT4246-SusD-like [1]) turn out when `CC(=O)N[C@H]1C(O)O[C@H](CO)[C@@H](O)[C@@H]1O[C@@H]1O[C@H](CO)[C@H](O)[C@H](O)[C@H]1O` (some centres unmarked) [lacto-N-biose] was run?
**A.** 0.13 (±0.07) × 10^4

**Q.** How did the “X-ray crystal structure, 1.8 Å” value (BT4246-SusD-like [2]) turn out when `OC[C@H]1OC(O)[C@H](O)[C@@H](O)[C@H]1O` (some centres unmarked) [terminal Gal from a mucin O-glycan oligosaccharide] was run?
**A.** In the resulting structure, unambiguous electron density was observed for a β-linked Gal

**Q.** What does the source list for `OC[C@H]1OC(O)[C@H](O)[C@@H](O)[C@H]1O` (some centres unmarked) [Gal]?
**A.** Ka (BT4244-CBM32): 0.16 (±0.01) × 10^4; Ka (BT4245-SGBP): > 0.1 × 10^4

B1: BT4243-GH109 (Bacteroides thetaiotaomicron VPI-5482) (protein)
chain: QKTKAKFSPIKVETPARPANQQDVIQLVTPKLETVRVGFIGLGMRGPGAVERWTHIPGTQIVALCDLLPERVENAQKILEKAGLPKAASYAGDEKAWKKLCERDDIDVVYIATDWKHHADMGVYAMEHGKHVAIEVPAAMTLDEIWKLINTSEKTRKHCMQLENCVYDFFELTSLNMAQQGVFGEVLHVEGAYIHNLEDFWPYYWNNWRMDYNQKHRGDVYATHGMGPACQVLNIHRGDRMKTLVAMDTKAVNGPAYIKKSTGKEVKDFQNGDQTTTLIRTENGKTMLIQHNVMTPRPYSRMYQVVGADGYASKYPIEEYCLRPTQVDSNDVPNHEKLNAHGSVSEDVKKALMAKYKDPIHKELEETAKKVGGHGGMDYIMDYRLVYCLRNGLPLDMDVYDLAEWCCMAELTRLSIENGSAPVEVPDFTRGGWNKVQGYRHAFAE
notes: mature form, signal peptide removed, His-tagged, from E. coli
**Q.** For B1, which Km [3] is on record?
**A.** 0.03 (±0.005) mM

**Q.** What about the kcat [3] of the same molecule?
**A.** 2.1 (±0.3) s-1
